Test results: US8110577B2, “Histone deacetylase inhibitors” (Queen Mary & Westfield College, priority 2006, dated 2012)
Where two headings read alike, the source gives them in different places.

Legend:
[1] = biological target: Partially purified HDAC enzyme (liver prep); test: HDAC activity assay (MAL deacetylation, HPLC) with partially purified liver HDAC; format: biochemical, rat
Text: The activity of compounds as inhibitors of histone deacetylase was investigated using a modified procedure based on a rapid in vitro HDAC activity assay (HDAC mediated deacetylation of an Ω-acetylated lysine (MAL)) as described by Hoffman et al in Nucl. Acids. Res. 27 2057-2058 (1999).
The HDAC substrate N-(-4-methyl-7-coumarinyl)-N-α-(tert-butyloxy-carbonyl)-N-Ω abbreviated as MAL was synthesised as described (Hoffman et al 1999). HDAC inhibitors and substrate (MAL) were made up in Hepes buffer (50 mM, pH 7.4). Partially purified HDAC enzyme (liver prep, 100 μL), HDAC inhibitor or Hepes buffer (100 μl), substrate (MAL, 100 μL 5 μg/mL) and assay buffer (100 μL, tris-HCl (10 mM), NaCl (10 mM), MgCl2 (15 mM), EGTA (0.1 mM), 10% (v/v) glycerol, and mercaptoethanol (0.007%)) were incubated at 37° C. for 60 minutes. The reaction was terminated with 100 μl acetonitrile, and MAL and the deacetylated product (ML) were determined in the supernatant.
(§1) Chromatographic separation of MAL and ML was carried out using a 15 cm Apex ODS […] column with acetonitrile/distilled water (40:60), 2% trifluoracetic acid (TFA) v/v mobile phase at a flow rate of 1.2 ml/minute. MAL and ML were quantified by fluorescence detection at excitation/emission wavelengths of 330/395 nm.
(§2) The activity of each inhibitor was assessed at a minimum of 5 non-zero concentrations. MAL and ML peak heights were used to derive the percentage MAL in the mixture as the ration of MAL: MAL+ML.
HDAC inhibitory activity against cell-free HDACs isolated from rat liver was determined using the HPLC method.

[2] = system: Cell-free (CEM cells) HDAC; test: Cell-free (CEM cells) HDAC inhibitory activity, fluorescent commercial kit (Upstate Cell Signaling); format: biochemical
Text: HDAC inhibitory activity has also been determined using a fluorescent commercial kit method (Upstate Cell Signaling).

[3] = system: MCF7 (breast cancer) tumours; test: MCF7 xenograft study in nude mice; format: in vivo; conditions: 15 day treatment, FIG. 6
Procedure: Xenograft studies were carried out with MCF7 cells implanted under the skin on the flank of female nude mice (5-8 weeks of age). […] Animals also received a 2 mg oestrogen pellet as an implant on the day of tumour implantation. Tumour volumes were determined from measurements of 2 diameters carried out every other day out to day 15 of treatment.

[4] = system: acetylated histone H3 in MCF-7 cells; test: Histone H3 acetylation in MCF7 cells (protein blot); format: cell-based; conditions: for histone H3 acetylation with time: FIG. 5; for change in histone H3 acetylation: 2 hour exposure to increasing concentrations, FIG. 4
Procedure: The effect of the compounds on the acetylation of histone H3 was investigated in MCF-7 cells. Briefly cells were treated with a range of concentration of specific inhibitor or different exposure durations. Cells were then lysed and the proteins resolved by polyacrylamide electrophoresis prior to blotting onto a nitrocellulose membrane and staining with an antibody specific for the protein under study (acetylated histone H3) and a control protein (β-actin). As HDAC inhibitors reduce deacetylase activity, treatment of intact cells results in the accumulation of acetylated histones.

CEM (leukaemic) cells = test: Cell viability / cytotoxic activity, ATP Vialite assay, CEM cells; format: cell-based; conditions: Homo sapiens, CCRF-CEM
Procedure: (§3) EC50 values for percentage viability (3-day exposure) were determined using 2 different methods, trypan blue staining and an ATP assay. Trypan blue staining relies on the ability of healthy cells with intact membranes to exclude dyes. As cells start to undergo programmed cell death membrane integrity becomes compromised allowing dye entry. The % cells staining positive for trypan blue relative to the total cell number therefore reflects % cell viability (% viability). Non-viable cells also lose the ability to regenerate ATP. A specific ATP assay procedure using a 96-well plate-based approach (Vialite assay, Cambrex, UK) also measures cell viability, expressed relative to the ATP value in the control (untreated) cell population.
Effects against viable cell number have been determined using the ATP Vialite kit method (Cambrex, UK).

[5] = system: HDAC activity in intact CEM cells; test: Whole cell HDAC activity assay (MAL) in intact CEM cells; format: cell-based; conditions: FIG. 2, read-out: HDAC inhibitory values in intact CEM cells
Procedure: Cells were then rapidly washed at 4° C., lysed by sonication, the reaction stopped with acetonitrile, and MAL and the deacetylated product determined in the supernatant by rapid HPLC.
as §1, §2

[6] = system: HCT116 (colorectal cancer) cells; test: Cell viability, 3-day exposure, HCT116 cells; format: cell-based; conditions: Homo sapiens, HCT-116, 72 h, 3 day incubation, FIG. 3
Procedure: as §3

[7] = system: MCF7 (breast cancer) cells; test: Cell viability, 3-day exposure, MCF7 cells; format: cell-based; conditions: Homo sapiens, 72 h, 3 day incubation, FIG. 3
Procedure: as §3

[8] = system: panel of 8 lymphoma cell lines; test: Cell viability (ATP) in a panel of 8 lymphoma cell lines; format: cell-based; conditions: ATP endpoint assay, read-out: EC50 values (range over the panel)
Procedure: as §3

[9] = cell-free HDACs isolated from rat liver, HPLC method, different liver preparation than Example 1, read-out: HDAC inhibitory IC50

Cc1nsc(C(CCCCCC(=N)NO)C(=O)Nc2ccccc2)n1 (stereo not drawn) [67022,19, 7-(N-Hydroxycarbamimidoyl)-2(3-methyl[1,2,4]thiadiazol-5-yl)heptanoic Acid Phenylamide]
IC50 [1, 9]: 44600 ± 5600 nM
IC50 [2]: 46100 ± 12000 nM

Cc1nsc(C(CCCCCC(N)=S)C(=O)Nc2ccccc2)n1 (stereo not drawn) [67022,20, 2-(3-Methyl-[1,2,4]thiadiazol-5-yl)-7-thiocarbamoylheptanoic Acid Phenylamide]
IC50 [1, 9]: 318000 nM

O=C(CCCCCCC(=O)Nc1ccccc1)NO [SAHA, suberoylanilide hydroxamic acid, reference compound]
effect on tumour growth ([3]; daily IP 25 mg/kg in DMSO): not very different to treatment with the DMSO vehicle alone
histone H3 acetylation with time ([4]; 3 μM SAHA, time periods up to 48 hours): acetylation increased up to 6 hours, but had decreased to baseline levels by 24 hours
change in histone H3 acetylation [4]: relatively minor changes in acetylation state at concentrations <1.0 μM

O=C(CCCCCC(C(=O)Nc1ccccc1)C(=O)Nc1ccccc1)NO [UCL67022, 2-Phenylcarbamoyl-octanedioic acid 8-hydroxyamide 1-phenylamide]
EC50 (CEM (leukaemic) cells; 72 h, CEM cells, 3 day incubation, FIG. 3): 60 nM
IC50 (CEM (leukaemic) cells; cytotoxic activity against CEM (leukaemic) cells, viable cell number, ATP Vialite kit, read-out: HDAC inhibitory IC50): 98 ± 42 nM
effect on tumour growth ([3]; daily IP dose levels 12.5·M and 6.25·M): appeared to have a clear effect on tumour growth
IC50 [5]: 110 ± 20 nM
EC50 [6]: 70 nM
histone H3 acetylation with time ([4]; 0.3 μM UCL67022, time periods up to 48 hours): acetylation continued to increase out to 24 hours, and was still substantially higher than baseline at 48 hours
change in histone H3 acetylation [4]: marked change in histone H3 acetylation at concentrations as low as 0.1 μM
IC50 [1, 9]: 40 ± 9 nM
IC50 ([1]; partially purified rat liver preparation, Example 1, FIG. 1, read-out: HDAC inhibitory activity IC50): 50 ± 10 nM
EC50 [7]: 130 nM
EC50 [8]: 20 to 80 nM
IC50 [2]: 86 ± 7 nM
